Where no end group is shown, it is not given here.
Assays:
carrageenan-treated mice [1] = assay: Randall-Selitto test, mechanical hyperalgesia heightened by carrageenan; assay type: in vivo
Experimental: In order to probe mechanical hyperalgesia in mice, the present inventors conducted the Randall-Selitto test, in which severe mechanical stress is applied to inflict pain. In detail, force is applied to a sharp-ended rod in touch with a hind paw of a mouse. As a measure of pain sensitivity, the weight of the rod at the pain threshold is recorded.
(§1) A cone-shaped rod was placed at one of the hind paws of mice treated with GsMTx4 and force was applied. […] A pain response was characterized as either raising the hind paw, rolling up the tail, or making a shrill sound.
(§2) Two groups of 8 mice each were injected with either physiological saline solution or the pain inducer carrageenan (2% solution, 50 μL, intraplantar) at their hind paws. After the first injection, either GsMTx4 (40 μg/150 g body weight) or for the positive control group, morphine (1.5 mg/150 g) was intraperitoneally injected to these mice. The Randall-Selitto test was carried out 4 hours later. Mechanical stimuli were applied in an area in the paw between the thumb and index finger. Threshold weight data were represented as percentage values against the threshold weight for mice treated saline solution (negative control).

carrageenan-treated mice [2] = assay: von Frey test, mechanical allodynia heightened by carrageenan; assay type: in vivo
Description: Mechanical stimuli were applied in an area in the paw between the thumb and index finger.

carrageenan-treated mice [3] = assay: Weight-bearing test; assay type: in vivo
Experimental: In order to monitor behavioral changes brought by complex mechanical stimuli, the present inventors conducted the weight-bearing test, in which complex mechanical pain is assessed as the stimulus is varied. In detail, one the hind limbs of a mouse was injected with pain inducers such as carrageenan and formalin to incur pain. In such a case, the mouse puts less weight in the injected hind limb, but puts more weight than usual in the other, normal hind limb and this difference in weight is recorded as a measure of pain.
More specifically, the principles behind this test are as follows. When a mouse receives an injection of pain inducers in only one of the hind paws, it puts more weight than usual in the other hind paw. This difference in the weight balance serves as a measure of the mouse's pain. In the present example, such weight difference per unit body weight of the mouse was reported for comparison.
Two groups of 8 mice each received an intraplantar injection of either 2% carrageenan (50 μL) or for the negative control group, physiological saline solution (100 μL) at only one of their hind paws. To the carrageenan-treated mice, either GsMTx4 (40 μg/150 g body weight) or for the positive control group, morphine (10 mg/150 g) was intraperitoneally and their weight balances were monitored 1 to 6 hours later.

[4] = system: mice that did not receive carrageenan; assay: Randall-Selitto test, mechanical high-pressure stimuli, no pain inducer; assay type: in vivo; conditions: mice without carrageenan; compared to intraplantar saline and intraperitoneal morphine groups
Experimental: as §1, §2

[5] = system: mice that did not receive carrageenan; assay: von Frey test, mechanical low-pressure stimuli, no pain inducer; assay type: in vivo; conditions: mice without carrageenan; compared to intraplantar saline and intraperitoneal morphine groups
Experimental: The present inventors conducted the von Frey test in order to see whether GsMTx4 of this invention has an analgesic effect against rubbing or other weak mechanical stimuli inside a living body. When a pain inducer is administered only to one of the hind paws of a mouse, the affected paw becomes sensitive and feels pain from even small mechanical stimuli. The von Frey test involves measuring the weight difference at the pain threshold between the two hind paws as one varies the width of the von Frey hair involved in giving the stimuli (http://www.2biol.com/2biol analgesia.htm; Pitcher, G. M. et al., Journal of Neuroscience Methods 87(2):185˜193, 1999).
Two groups of 8 mice each received a 50-μL intraplantar injection of either physiological saline solution or 2% carrageenan at only one of their hind paws. After the first injection, either GsMTx4 (40 μg/150 g body weight) or for the positive control group, morphine (10 mg/150 g) was intraperitoneally injected to these mice. These mice were rubbed with von Frey hairs a half to 4 hours later.
Mechanical stimuli were applied in an area in the paw between the thumb and index finger. Threshold weight data were represented as percentages against the threshold weight for mice treated saline solution (negative control).

[6] = system: mice with neuropathic pains; assay: von Frey test under a neuropathic pain model; assay type: in vivo; conditions: tibial and sural nerves cut; 50 μg/200 g body weight; 4 hours after injection; versus saline control
Description: Neuropathic pain was induced to mice according to the method reported by Lee and others (Lee, B. et al., Neuroreport 11:657˜661, 2000). Mice were put under anesthesia and their skin was excised in the thighs to expose the tibial, sural and common peroneal nerves. Out of these, the tibial and sural nerves were bound together and cut off. Mice were then allowed to recuperate for 6 days after the operation and the monitoring for the presence of neuropathic pain began 1 week after the operation. The analgesic effect of GsMTx4 on those mice suffering from neuropathic pain was tested by the von Frey test as in Example 9.
Mice with neuropathic pains were divided into two groups of 9. To the first group, GsMTx (50 μg/200 g body weight) was injected and to the second group, physiological saline solution for control. 4 hours after the injection of GsMTx4, mechanical stimuli were applied to these mice with von Frey filaments. The width of the von Frey filament that evoked a nociceptic (flexor) reflex was recorded before and after the surgery, and the data was expressed as the percentage of the latter width in relation to the former.

mice = assay: Tail flick test, temperature stimuli; assay type: in vivo; conditions: no pain inducer; GsMTx4 40 μg/150 g intraperitoneal; compared to morphine 10 mg/150 g; 30 to 4 hours later
Description: The present inventors looked into GsMTx4 for its possible analgesic activity on pain from temperature stimuli. Mice were irradiated with infrared in their tails and monitored for their endurance against heat (tail flick test). The analgesic effect of GsMTx4 was examined by comparing data from a group of mice suffering from induced pain with those from a non-induced group (Pitcher G. M. et al., Journal of Neuroscience Methods, 87(2):185˜193, 1999).
Three groups of 8 mice each respectively received an intraperitoneal injection of either physiological saline solution (100 μL) as the negative control, or morphine (10 mg/150 g body weight) as the positive control, or GsMTx4 (40 μg/150 g). They were then subject to the tail flick test 30 to 4 hours later.

cell swelling = conditions: Sachs et al., J. Gen. Physiol. 2000; cited from earlier work
[7] = system: stretch-activated channels (SACs); conditions: administered to the hearts of rabbits after atrial fibrillation was induced with high level stress; cited from earlier work
[8] = carrageenan-treated mice, GsMTx4 40 μg/150 g intraperitoneal

Compound | pain sensitivity threshold (carrageenan-treated mice [1]; mouse, in vivo, ip) | hypersensitivity (pain threshold for hair force) (carrageenan-treated mice [2]; mouse, in vivo, ip) | weight difference between hind limbs (carrageenan-treated mice [3]; mouse, in vivo, ip) | pain sensitivity threshold (carrageenan-treated mice [1]; 2% carrageenan 50 μL intraplantar, intraperitoneal GsMTx4 40 μg/150 g body weight or morphine 1.5 mg/150 g) | time after injection at which the analgesic effect occurred (carrageenan-treated mice [1]; [8]) [min] | time the analgesic effect lasted (carrageenan-treated mice [1]; [8]) | analgesic effect against mechanical high pressure [4] | hypersensitivity (pain threshold for hair force) (carrageenan-treated mice [2]; 2% carrageenan 50 μL intraplantar, intraperitoneal GsMTx4 40 μg/150 g or morphine 10 mg/150 g, a half to 4 hours later) | analgesic effect against mechanical low pressure [5] | weight difference between hind limbs (carrageenan-treated mice [3]; 2% carrageenan 50 μL intraplantar, GsMTx4 40 μg/150 g or morphine 10 mg/150 g intraperitoneally, 1 to 6 hours later) | reflex threshold against mechanical stimuli (von Frey filaments) [6] | analgesic activity against temperature stimuli (mice) | effect on cell swelling associated with congestive heart failure (cell swelling) | effect on atrial fibrillation [7]
CN1CC[C@]23c4c5ccc(O)c4O[C@H]2[C@@H](O)C=C[C@H]3[C@H]1C5 [morphine, reference compound] | increased back substantially | reduce hypersensitivity | reverted back to a low value |  |  |  |  |  |  |  |  |  |  | 
GsMTx4: Spider toxin peptide of 34 amino acids (SEQ. ID NO 1), 3 disulfide bonds, mechanosensitive ion channel inhibitor; produced recombinantly in Pichia pastoris (GCLEFWWKCNPNDDKCCRPKLKCSKLFKLCNFSF; disulfide (positions not given here); not fully specified (bridges); ends not checked; listed as Grammostola spatulata) |  |  |  | increased back substantially | 30 | approximately 4 hours | evident | reduce hypersensitivity | observed, albeit weakly | reverted back to a low value | elevation of the reflex threshold | either negligible or no analgesic activity | prevent cell swelling | relieve symptoms of atrial fibrillation

— patent publication US20120015886A1, “METHOD FOR PREPARING RECOMBINANT PEPTIDE FROM SPIDER VENOM AND METHOD FOR RELIEVING PAIN” (priority 2005, published 2012)
